Biological target: T1, Serine/threonine-protein kinase B-raf (Homo sapiens, UniProt P15056)
Test: Inhibition of human cloned wild type BRAF at 50 uM by ELISA-based MEK phosphorylation assay

T1 sequence (P15056 whole entry): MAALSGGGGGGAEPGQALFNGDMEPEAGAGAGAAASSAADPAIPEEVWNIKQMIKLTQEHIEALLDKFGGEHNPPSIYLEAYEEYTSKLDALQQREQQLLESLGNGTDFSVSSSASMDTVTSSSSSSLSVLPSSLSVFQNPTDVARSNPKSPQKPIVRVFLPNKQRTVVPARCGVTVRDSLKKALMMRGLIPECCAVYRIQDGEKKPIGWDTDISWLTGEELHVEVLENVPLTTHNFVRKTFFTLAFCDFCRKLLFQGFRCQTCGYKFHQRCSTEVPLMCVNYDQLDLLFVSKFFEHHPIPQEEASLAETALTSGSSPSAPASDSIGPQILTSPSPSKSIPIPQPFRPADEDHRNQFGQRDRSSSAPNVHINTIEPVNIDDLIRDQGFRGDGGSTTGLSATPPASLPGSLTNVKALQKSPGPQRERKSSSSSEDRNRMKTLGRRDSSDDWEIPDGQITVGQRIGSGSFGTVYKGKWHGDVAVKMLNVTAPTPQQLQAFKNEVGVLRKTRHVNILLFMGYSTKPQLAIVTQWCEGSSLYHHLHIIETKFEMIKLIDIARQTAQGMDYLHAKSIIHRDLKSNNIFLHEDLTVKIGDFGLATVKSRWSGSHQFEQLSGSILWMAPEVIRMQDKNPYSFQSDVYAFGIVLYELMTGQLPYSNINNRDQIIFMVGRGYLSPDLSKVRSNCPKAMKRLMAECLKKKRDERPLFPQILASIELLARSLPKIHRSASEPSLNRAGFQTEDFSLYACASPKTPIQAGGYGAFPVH

| inhibition [%] | SMILES |
| --- | --- |
| 90 | Cn1c(=O)[nH]c(=O)c2c1nc(S)n2Cc1ccc(Cl)cc1 |

Biological target: Phosphatidylinositol 4,5-bisphosphate 3-kinase catalytic subunit gamma isoform (Homo sapiens, UniProt P48736)
Test: Inhibition of human recombinant PI3Kgamma catalytic domain

Phosphatidylinositol 4,5-bisphosphate 3-kinase catalytic subunit gamma isoform, sequence (P48736 whole entry, the tested form may be a part, canonical isoform): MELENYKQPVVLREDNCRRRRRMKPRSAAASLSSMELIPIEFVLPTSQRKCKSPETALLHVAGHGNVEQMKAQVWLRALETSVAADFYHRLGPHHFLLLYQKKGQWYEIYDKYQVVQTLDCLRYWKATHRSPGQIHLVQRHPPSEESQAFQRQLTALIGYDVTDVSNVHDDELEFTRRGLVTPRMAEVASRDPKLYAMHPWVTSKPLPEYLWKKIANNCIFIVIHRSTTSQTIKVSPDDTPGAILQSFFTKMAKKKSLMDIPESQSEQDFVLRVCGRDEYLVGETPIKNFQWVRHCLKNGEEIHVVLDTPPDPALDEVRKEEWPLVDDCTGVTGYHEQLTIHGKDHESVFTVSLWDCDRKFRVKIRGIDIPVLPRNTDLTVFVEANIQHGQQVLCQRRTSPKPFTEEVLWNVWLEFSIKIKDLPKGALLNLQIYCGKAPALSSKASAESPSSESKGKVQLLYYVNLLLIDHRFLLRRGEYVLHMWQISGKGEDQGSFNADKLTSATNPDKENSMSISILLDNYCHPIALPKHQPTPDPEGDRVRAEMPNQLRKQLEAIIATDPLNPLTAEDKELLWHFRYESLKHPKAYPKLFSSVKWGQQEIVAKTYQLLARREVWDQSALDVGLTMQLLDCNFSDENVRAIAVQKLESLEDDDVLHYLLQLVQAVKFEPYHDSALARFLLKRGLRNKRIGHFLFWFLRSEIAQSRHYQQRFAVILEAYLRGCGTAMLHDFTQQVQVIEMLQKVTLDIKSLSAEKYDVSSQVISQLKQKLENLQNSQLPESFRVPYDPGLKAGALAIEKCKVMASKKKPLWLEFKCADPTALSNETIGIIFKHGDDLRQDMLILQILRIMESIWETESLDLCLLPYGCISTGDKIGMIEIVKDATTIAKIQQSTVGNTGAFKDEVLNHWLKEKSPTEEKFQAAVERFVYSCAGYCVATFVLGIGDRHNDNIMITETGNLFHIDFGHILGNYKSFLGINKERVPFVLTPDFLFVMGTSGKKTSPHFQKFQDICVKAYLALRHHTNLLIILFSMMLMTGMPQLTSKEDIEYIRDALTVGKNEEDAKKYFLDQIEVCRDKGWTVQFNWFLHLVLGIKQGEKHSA

| IC50 [µM] | SMILES |
| --- | --- |
| 25 | Cn1c(=O)n(Cc2ccccc2)c(=O)c2c1nc(SCCO)n2Cc1ccccc1 |

Biological target: T1, Serine/threonine-protein kinase B-raf
Description: Inhibition of human cloned wild type BRAF by ELISA-based MEK phosphorylation assay

| IC50 [µM] | SMILES |
| --- | --- |
| 30.1 | CSc1nc2c(c(=O)[nH]c(=O)n2C)n1Cc1ccccc1 |
| 1.72 | Cn1c(=O)n(Cc2ccccc2)c(=O)c2c1nc(SCCO)n2Cc1ccccc1 |
| 37.5 | C=CCn1c(N/N=C\c2cccc([N+](=O)[O-])c2)nc2c1c(=O)[nH]c(=O)n2C |
| 4.6 | C/C(=N/Nc1nc2c(c(=O)[nH]c(=O)n2C)n1Cc1ccccc1)c1ccc([N+](=O)[O-])cc1 |
| 11.1 | Cn1c(=O)[nH]c(=O)c2c1nc(SCC(N)=O)n2Cc1cccc(Br)c1 |
| 11.4 | C/C(=N/Nc1nc2c(c(=O)[nH]c(=O)n2C)n1Cc1ccccc1)c1ccccc1 |
| 57.9 | Cn1c(=O)[nH]c(=O)c2c1nc(N/N=C\c1ccc([N+](=O)[O-])cc1)n2Cc1ccccc1 |
| 2.1 | Cn1c(=O)[nH]c(=O)c2c1[nH]c(=S)n2Cc1ccc(Cl)cc1 |
| 17.4 | C/C(Cl)=C/Cn1c(N/N=C(/C)c2ccc([N+](=O)[O-])cc2)nc2c1c(=O)[nH]c(=O)n2C |
| > 50 | Cn1c(=O)[nH]c(=O)c2c1nc(N/N=C\c1cccc([N+](=O)[O-])c1)n2Cc1ccccc1 |
| 3.75 | C/C(Cl)=C\CSc1nc2c(c(=O)[nH]c(=O)n2C)n1CC(O)CCc1ccccc1 (stereo not drawn) |

The remaining lines, values behind:

| SMILES | IC50 [µM] |
| --- | --- |
| COc1cccc(N2C(=O)CC(N3CCN(Cc4ccccc4)CC3)C2=O)c1 (stereo not drawn) | > 100 |
| CCN(CC)Cc1c(C(=O)N/N=C/c2ccco2)nnn1-c1nonc1N | > 100 |
| Cc1cccc(C)c1NC(=O)CSc1nnc(CN2CCOCC2)n1C | > 100 |
| CN1CCN(Cc2c3c(c(CN4CCN(C)CC4)c4c2CCC4)CCC3)CC1 | > 100 |
| CCN1CCN(Cc2nc3cc(Cl)ccc3n2Cc2ccccc2)CC1 | > 100 |
| O=C(Cn1c2ccccc2n2ncnc12)c1cccs1 | > 100 |
| COc1ccccc1N1C(=O)CC(N2CCC(C(N)=O)CC2)C1=O (stereo not drawn) | > 100 |
| Cc1cc(C2C(C(=O)c3ccc4c(c3)OCCO4)=C(O)C(=O)N2CCCn2ccnc2)co1 (stereo not drawn) | > 100 |
| Cc1ccc(C2CC(c3ccccc3)=NN2C(=O)CN2CCOCC2)o1 (stereo not drawn) | > 100 |
| Cc1cc(C)n(-c2nc3c(c(=O)n(C)c(=O)n3C)n2Cc2ccccc2)n1 | 57.7 |
| O=C(NC(C(=O)c1ccccc1)N1CCOCC1)c1cccs1 (stereo not drawn) | > 100 |
| COc1cc(/C=N/NC(=O)CN2CCN(c3ccc(F)cc3)CC2)ccc1O | > 100 |
| COc1cc(C2C(C#N)=C(N)OC3=C2C(=O)CCC3)ccc1Cn1nc(C)c([N+](=O)[O-])c1C (stereo not drawn) | > 100 |
| CN1CCN(CC(=O)N2N=C(c3cccs3)CC2c2ccco2)CC1 (stereo not drawn) | > 100 |
| C/C(Cl)=C\CSc1nc2c(c(=O)n(Cc3ccccc3)c(=O)n2C)n1Cc1ccccc1 | 10.9 |
| CC1Nc2nc(NC(=O)c3ccc[n+](C)c3)[nH]c(=O)c2N(C(=O)c2ccc[n+](C)c2)C1C (stereo not drawn) | 29.4 |
| COc1cccc(C2CC(C(F)(F)F)n3ncc(C(=O)Nc4ccc(OC)cc4OC)c3N2)c1 (stereo not drawn) | > 100 |
| COc1ccc(CN2CCCN(Cc3ccc(OC)cc3)C2c2cccc(C)n2)cc1 | > 100 |
| CC(=O)c1c(C)nn2c3ccccc3n(CCN3CCOCC3)c12 | > 100 |
| COc1ccc(OC)c(C(O)c2coc3ccc(O)c(CN4CCOCC4)c23)c1 (stereo not drawn) | > 100 |
